Data reported in US4150970A, “Growth regulator for plants” (Board of Trustees of Michigan State University, priority 1977, dated 1979).
“Also recorded” adds a separate entry of the source.

Columns and labels:
[1] = system: Starbonnet rice seedlings; experiment: Growth analysis of Starbonnet rice seedlings under different light intensities (Example VI); type: in vivo; design: key to NAR: mg plant weight per cm^2 leaf area per day; RGR / LAR: unit not given here
Description: (§1) Rice seed cv. IR-8, or Starbonnet was surface treated with 0.1 percent mercuric chloride and planted in 77 cc plastic cups containing vermiculite and watered with one-fourth Hoagland's nutrient solution containing 3 mM of nitrogen at pH 5.0. After 10 days, seedlings were transplanted to 220 cc specimen cups wrapped in aluminum foil and containing 180 cc of the same Hoagland's nutrient solution. Four seedlings were suspended in the solution with a sponge rubber disc. The plants were grown under a 8 h night at 25° C. and a 16 h day at 30° C. with 21 and 8 μwatts per cm^2 in the blue and red spectra respectively. In the test with varying light intensity the high light intensity was 30 13 and the low intensity was 15 and 8 μwatts per cm^2 for the blue and red spectra respectively. The nutrient solution was renewed every 2 or 3 days. After one week the plants were sorted for size and similar sized plants assigned to the same block for the experiment. Prior to the initiation of a test the plants in each cup were assigned treatment numbers by use of a random number table. […] Sixteen hours prior to a test the foil wrapped cups were tared, and filled with one-half Hoaglands solution containing 6 mM nitrogen. Eighteen μl of chloroform or chloroform containing 1.8 μg triacontanol were placed on 2 cm^2 of Whatman No. 1 filter papers, air dried and placed in the specimen cups. This concentration of 10 μg triacontanol/liter was used for all tests described in the following Examples except where specifically indicated to the contrary. Immediately prior to the test the cups were all brought up to 180 ml. including a set of cups without plants to measure evaporation.
The plants were disected at harvest into shoots and roots. The expanded leaves were cut at the ligule and the newest leaf at the point it entered the sheath. The surface area of expanded leaves were measured using a Lambda Model LI-3000 planimeter. The plants were dried to constant weight in an oven at 100° C. and the roots, expanded leaves, and sheaths were weighed separately.
Growth analysis was conducted according to Evans (1972). The Net Assimulation Rate (NAR) is the increase in plant weight per unit of leaf area over time interval where: W=total weight per plant in mg, T=time in days, and L=leaf area in cm^2. [formula]
The relative growth rate (RGR) is the increase in plant weight per unit of original weight over a time interval and is obtained by: [formula]
The leaf area ratio is the ratio of leaf area to […] over a time interval. [formula]
This Example presents a growth analysis of `Starbonnet` rice seedlings treated with triacontanol under different light intensities, "Low" and "High" intensities are defined above, and in the Table VI these designations represent the light to which each plant was subjected.

IR-8 rice seedlings [2] = experiment: Dry weight of rice seedlings in the dark with and without carbon dioxide (Example VII); type: in vivo
Description: as §1
In the tests comparing dry weight accumulation in plants grown either in the absence of CO2 or in normal air were grown as previously described except the test was initiated at the end of the 16 hour light period.
Plants were placed in 20×32 cm glass jars fitted with gas inlet and outlet ports. Three jars containing 2 cups each were used for a total of 24 plants for each treatment. The plants were ventilated with air or freed of CO2 by passing it through ascarite and then humidified. The flow rate was approximately 300 ml/minute. Carbon dioxide-free air was also used to purge the appropriate jars during a two minute period required to place the plants in the jars. The N analyses were done by the automated micro-Kjelldahl procedure of Ferrari (1960).
To determine the response of rice seedlings grown in the dark with and without carbon dioxide, 17 day old "IR-8" rice seedlings were grown in the dark for 6 hours. All the parameters of CO2 vs no CO2 and of triacontanol vs no triacontanol were run. The testing procedures were described above.

Larker barley = experiment: Single and multiple foliar applications on barley (Example XII); type: in vivo
Source text: Tests were run, under the conditions above described, to determine the response of "Michigan 396" field corn and "Larker" barley to single and multiple foliar applications of triacontanol at […]. Plants were one week old at time of first treatment and 25 days old at time or harvest. Table XII states the test results.

IR-8 rice seedlings [3] = experiment: Percent change in dry weight of rice seedlings in the dark (Example XVIII); type: in vivo; conditions: 0.01 mg/l
Description: as §1
This example was run to determine the percent change in dry weight of whole 15-day-old "IR-8" rice seedlings treated with triacontanol in the dark as compared with a control. The dry weight at zero time was 37.3 mg per seedling. […]

[4] = system: Tomato callus cell culture; experiment: Growth of tomato callus cell culture (Example XIX); type: cell-based, Lycopersicon esculentum, var. marglobe
Description: (§2) Cell cultures were separately grown in disposable petri dishes.
2. Tomato (Lycopersicon esculentum, var. marglobe)
(§3) The cultures were grown on the basic medium of mineral salts described by Linsmaier and Skoog (Physiol. Plant, […] (1965)). Vitamins and hormones varied for each tissue (Table X-1) to maintain the tissues in an undifferentiated state. For all of the tissues inositol was 100 mg/liter and agar 1%. Sucrose was 3% for all but the bean which was 2%.
(§4) Callus was produced from pith for tobacco, potato and tomato. Bean callus was produced from hypocotyl sections and barley callus from immature ovarian tissue. Subcultures were maintained on the appropriate media.
(§5) Stock solutions of triacontanol were prepared at a concentration of 100 μg/ml. The solvent used was glass distilled benzene. The lower concentrations were obtained by serial dilutions. Treatments were applied to 4.5 cm Whatman #1 filter paper disks in 100 μl aliquots. Controls received 100 μl of glass distilled benzene. The solvent was evaporated for approximately 15 minutes and the filter papers were then placed on the agar medium.
(§6) Callus tissue was then broken into pieces of approximately the same size (10 mg) and placed in the petri dishes on the treated filter paper (one piece per dish). For experiments conducted in the light the intensity was approximately 2.0 microwatts/cm^2 -namometer. Fresh weight measurements were made after 12 days of growth.

Bean callus cell culture = experiment: Growth of bean callus cell culture (Example XIX); type: cell-based, Phaseolus vulgaris, var. seafarer
Description: as §2
4. Bean (Phaseolus vulgaris, var. seafarer)
as §3, §4, §5, §6

[5] = printed 10.0 g triacontanol, 12 days

CCCCCCCCCCCCCCCCCCCCCCCCCCCCCCO [Triacontanol, 1-triacontanol]
LAR ([1]; high light, 0-4 hours): 3.31
NAR ([1]; high light, 0-4 hours): 6.42
RGR ([1]; high light, 0-4 hours): 0.89
LAR ([1]; high light, 5-8 hours): 3.45
NAR ([1]; high light, 5-8 hours): 3.96
RGR ([1]; high light, 5-8 hours): 0.57
LAR ([1]; high light, 9-16 hours): 3.74
NAR ([1]; high light, 9-16 hours): 3.19
RGR ([1]; high light, 9-16 hours): 0.50
dry weight accumulation per leaf area at low light versus control at high light ([1]; low light intensities): as much dry weight per cm^2 of leaf area at low light intensities as the control plants did at the higher light intensity; also recorded: as much dry weight per unit of leaf area at low light intensities as the control plants did at higher light intensities
LAR ([1]; low light, 0-4 hours): 3.76
NAR ([1]; low light, 0-4 hours): 3.77
RGR ([1]; low light, 0-4 hours): 0.59
LAR ([1]; low light, 5-8 hours): 3.90
NAR ([1]; low light, 5-8 hours): 4.14
RGR ([1]; low light, 5-8 hours): 0.67
LAR ([1]; low light, 9-16 hours): 4.20
NAR ([1]; low light, 9-16 hours): 2.81
RGR ([1]; low light, 9-16 hours): 0.49
CO2 fixation in the dark (IR-8 rice seedlings [2]; dark 6 hours): stimulated rice seedlings to fix CO2 in the dark; also recorded: stimulates plants, such as rice seedlings, to fix CO2 in the dark
Dry Wt, Expanded leaves (IR-8 rice seedlings [2]; with CO2, dark 6 hours): 26.7 mg/plant
Dry Wt, Roots (IR-8 rice seedlings [2]; with CO2, dark 6 hours): 25.6 mg/plant
Dry Wt, Whole Plant (IR-8 rice seedlings [2]; with CO2, dark 6 hours): 71.9 mg/plant
Dry Wt, Expanded leaves (IR-8 rice seedlings [2]; without CO2, dark 6 hours): 22.4 mg/plant
Dry Wt, Roots (IR-8 rice seedlings [2]; without CO2, dark 6 hours): 23.2 mg/plant
Dry Wt, Whole Plant (IR-8 rice seedlings [2]; without CO2, dark 6 hours): 62.0 mg/plant
Dry wt, Barley (Larker barley; treated at 7, 12 and 18 days): 210 mg/shoot
Dry wt, Barley (Larker barley; treated at 7 and 12 days): 206 mg/shoot
Dry wt, Barley (Larker barley; treated at 12 and 18 days): 214 mg/shoot
Dry wt, Barley (Larker barley; treated at 7 days): 205 mg/shoot
Dry wt, Barley (Larker barley; treated at 12 days): 197 mg/shoot
Dry wt, Barley (Larker barley; treated at 18 days): 193 mg/shoot
Dry Weight (percent change) (IR-8 rice seedlings [3]; 1 hour): 4%
Dry Weight (percent change) (IR-8 rice seedlings [3]; 3 hours): 6%
Dry Weight (percent change) (IR-8 rice seedlings [3]; 6 hours): 10%
% of control [4, 5]: 140 % of control
Fresh weight [4, 5]: 16.8
growth of in vitro cell cultures ([4]; tomato): significant increases in growth
growth of in vitro cell cultures (Bean callus cell culture; bean): significant increases in growth
% of control (Bean callus cell culture; [5]): 149 % of control
Fresh weight (Bean callus cell culture; [5]): 19.8
